One test has as its system HCT116 cells. Kind of test: Cell proliferation assay (CellTiter-Glo), HCT116. It is filed as cell-based. The conditions noted are these: Homo sapiens, 120 h, HCT-116, 5 days incubation. Here is the method:
(§1) SW48 cells were plated at a density of 1,500 cells/well, and LoVo, HCT116, and SW620 cells were plated at a density of 800 cells/well in a 96-well cell culture plate, and cultured in a 37°C incubator overnight. The test compounds, which were gradient-diluted with DMSO, were added, and after incubation for 5 days, cell viability was detected using a CellTiter-Glo kit. The CellTiter-Glo reagent was equilibrated to room temperature, and an appropriate amount was added to the cell plate, followed by shaking at room temperature for 12 min. The luminescence signal was detected using a microplate reader.
(§2) The luminescence signal values of the DMSO-treated wells and cell-free wells were used as negative and positive controls, respectively, to calculate the inhibition rate of compound on cell proliferation. The concentration-inhibition curve was fitted using the "log(inhibitor) vs. normalized response -- Variable slope" equation in GraphPad Prism 8 software to obtain the IC50. [formula]
(ATP-based viability assays read luminescence as a measure of living cells.)

The subject of the next test is LoVo. Put plainly: Cell proliferation assay (CellTiter-Glo), LoVo. The conditions noted are these: Homo sapiens, 120 h, 5 days incubation. It is filed as cell-based. Here is the method:
as §1, §2

For the compound `CCc1c(N2CCN(C(=O)c3ncnc(C)c3O)CC2)c(=O)c2nn(C3=CCOCC3)nc2n1CC(=O)Nc1ccc(C(F)(F)F)cc1Cl` [Example 4], the IC50 (as a rule, the concentration that inhibits the measured activity by half) amounted to 48 nM in the test on HCT116 cells and 105 nM in the test on LoVo.

For the origin of these results see patent EP4692088A1, “COMPOUND ACTING AS WRN HELICASE INHIBITOR” (SHANGHAI JEYOU PHARMACEUTICAL CO., LTD., priority 2023, dated 2024).
